Results: patent publication US5759991A, “Neurotrophic peptide derivatives” (Sumitomo Pharmaceutical Company, Limited., priority 1991, dated 1998)

Columns and labels:
[1] = tested on: tissue of medial septum nuclei; test: acetylcholine synthesis activity of cultured medial septum nucleus tissue (method of Ojika et al.); format: cell-based; conditions: human-derived HCNP peptide compared with rat-derived HCNP
Description: The neurotrophic activity (also called neurotrophic factor activity) refers to, for example, an action of regulating differentiation and maturation of neuronal cells, namely, an action of accelerating the acetylcholine synthesis in the tissue of medial septum nuclei which is rich in cholinergic neurons.
The human-derived neurotrophic peptide or its derivatives of the present invention can regulate differentiation and maturation of neuronal cells. That is, the neurotrophic peptide and derivatives thereof accelerate the acetylcholine synthesis in the tissue of medial septum nuclei. The biological activity can be determined by the method of Ojika, K., et a. (Reference 66).
Medial septal nucleus was extracted from the brains of 16-day-old SD rat embryos and microscopically dissected into small pieces. […]
Except in the experiment for the study of sequential growth, the cultured tissue on the 9th day was washed with a Tris-HCl (pH 7.4) buffered Tyrode's solution, followed by preincubation in a high-K (55 mM KCl) Tyrode's solution, and then incubation in a Tyrode's solution containing ^3 H-choline chloride at 37° C. for 30 minutes. […] The choline uptake and Ach-productivity were expressed as amounts per one piece of cultured tissue. Choline acetyl-transferase (CATase) was measured using ^14 C-acetyl-CoA, according to the method of Fonnum, biochemical Journal, 115, 465-472 (1969). […]

[2] = tested on: tissue of medial septum nuclei; conditions: rat medial septum nuclei acetylcholinergic neuron; Reference 1; cited from earlier work

Substance	neurotrophic activity (acceleration of acetylcholine synthesis) [1]	production of acetylcholine [2]
H-PVDLSKWSGPL-OH [hHCNP, H-Pro-Val-Asp-Leu-Ser-Lys-Trp-Ser-Gly-Pro-Leu-OH]	neurotrophic activity similar to rat-derived HCNP was noted	–
HCNP: hippocampal cholinergic neurotrophic peptide composed of 11 amino acid residues isolated from hippocampal tissue of neonatal rat (AADISQWAGPL)	–	enhances production of acetylcholine
